ChEMBL document CHEMBL3045662, “Synthesis of quinolactacide via an acyl migration reaction and dehydrogenation with manganese dioxide, and its insecticidal activities” (2006)
Active and inactive are the calls of the source. No cut-off for these calls is given here.

Experiments:
Spodoptera litura = assay: Insecticidal activity against Spodoptera litura assessed as mortality at 500 ppm; assay type: functional, organism-based
[1] = tested on: Frankliniella occidentalis; assay: Insecticidal activity against Frankliniella occidentalis (western flower thrips) assessed as mortality at 500 ppm; assay type: functional, organism-based
Plutella xylostella = assay: Insecticidal activity against third-instar larvae of Plutella xylostella (diamondback moth) in six-leaf stage of cabbage plant assessed as mortality at 500 ppm sprayed over two excised leaf squares after 2 days; assay type: functional; conditions: 48 h
Tetranychus urticae = assay: Insecticidal activity against Tetranychus urticae (two-spotted spider mite) in primary leaf stage of bean plant assessed as mortality at 500 ppm after 2 days; assay type: functional; conditions: 48 h
Bemisia argentifolii = assay: Insecticidal activity against Bemisia argentifolii assessed as mortality at 500 ppm; assay type: functional, organism-based

## O=C1c2c([nH]c3ccccc3c2=O)-c2cccn21 [QUINOLACTACIDE]
Spodoptera litura
  mortality: inactive
[1]
  mortality: inactive
Plutella xylostella
  mortality at 500 ppm: 100%
Tetranychus urticae
  mortality at 500 ppm: 42%
Bemisia argentifolii
  mortality: inactive
